From PubChem BioAssay AID1259407 (Chemical Carcinogenesis Research Information System (CCRIS), 2018)
The source made the active and inactive calls. The rule behind the calls is not given here.

Test system: CCRIS mutagenicity, Ames/micronucleus/aberration tests
Test: CCRIS mutagenicity studies
Conditions: Method: PREINCUBATION
[1] = Test System: AMES SALMONELLA TYPHIMURIUM, Strain/Indicator: TA97, Metabolic Activation: NONE
[2] = Test System: AMES SALMONELLA TYPHIMURIUM, Strain/Indicator: TA98, Metabolic Activation: HAMSTER, LIVER, S-9, AROCLOR 1254 (10 OR 30%)
[3] = Test System: AMES SALMONELLA TYPHIMURIUM, Strain/Indicator: TA98, Metabolic Activation: NONE
[4] = Test System: AMES SALMONELLA TYPHIMURIUM, Strain/Indicator: TA98, Metabolic Activation: RAT, LIVER, S-9, AROCLOR 1254 (10 OR 30%)
[5] = Test System: AMES SALMONELLA TYPHIMURIUM, Strain/Indicator: TA100, Metabolic Activation: NONE
[6] = Test System: AMES SALMONELLA TYPHIMURIUM, Strain/Indicator: TA1535, Metabolic Activation: HAMSTER, LIVER, S-9, AROCLOR 1254 (10 OR 30%)
[7] = Test System: AMES SALMONELLA TYPHIMURIUM, Strain/Indicator: TA1535, Metabolic Activation: NONE
[8] = Test System: AMES SALMONELLA TYPHIMURIUM, Strain/Indicator: TA1535, Metabolic Activation: RAT, LIVER, S-9, AROCLOR 1254 (10 OR 30%)

Measured: mutagenic call

CCC1NC(=O)c2cc(S(N)(=O)=O)c(Cl)cc2N1 (stereo unspecified)
inactive: Test System: AMES SALMONELLA TYPHIMURIUM, Strain/Indicator: TA97, Metabolic Activation: HAMSTER, LIVER, S-9, AROCLOR 1254 (10%) inactive; negative | Test System: AMES SALMONELLA TYPHIMURIUM, Strain/Indicator: TA97, Metabolic Activation: HAMSTER, LIVER, S-9, AROCLOR 1254 (30%) inactive; negative | [1] inactive; negative | Test System: AMES SALMONELLA TYPHIMURIUM, Strain/Indicator: TA97, Metabolic Activation: RAT, LIVER, S-9, AROCLOR 1254 (10%) inactive; negative | Test System: AMES SALMONELLA TYPHIMURIUM, Strain/Indicator: TA97, Metabolic Activation: RAT, LIVER, S-9, AROCLOR 1254 (30%) inactive; negative | [2] inactive; negative | [3] inactive; negative | [4] inactive; negative | Test System: AMES SALMONELLA TYPHIMURIUM, Strain/Indicator: TA100, Metabolic Activation: HAMSTER, LIVER, S-9, AROCLOR 1254 (5 OR 10%) inactive; negative | Test System: AMES SALMONELLA TYPHIMURIUM, Strain/Indicator: TA100, Metabolic Activation: HAMSTER, LIVER, S-9, AROCLOR 1254 (30%) inactive; negative | [5] inactive; negative | Test System: AMES SALMONELLA TYPHIMURIUM, Strain/Indicator: TA100, Metabolic Activation: RAT, LIVER, S-9, AROCLOR 1254 (5 OR 10%) inactive; negative | Test System: AMES SALMONELLA TYPHIMURIUM, Strain/Indicator: TA100, Metabolic Activation: RAT, LIVER, S-9, AROCLOR 1254 (30%) inactive; negative | [6] inactive; negative | [7] inactive; negative | [8] inactive; negative

CCCCCCCCCCCCCCCCCCN
inactive: Test System: AMES SALMONELLA TYPHIMURIUM, Strain/Indicator: TA97, Metabolic Activation: HAMSTER, LIVER, S-9, AROCLOR 1254 (10 OR 30%) inactive; negative | [1] inactive; negative | Test System: AMES SALMONELLA TYPHIMURIUM, Strain/Indicator: TA97, Metabolic Activation: RAT, LIVER, S-9, AROCLOR 1254 (10 OR 30%) inactive; negative | [2] inactive; negative | [3] inactive; negative | Test System: AMES SALMONELLA TYPHIMURIUM, Strain/Indicator: TA98, Metabolic Activation: RAT LIVER S-9, PHENOBARBITAL AND BETA-NAPHTHOFLAVONE inactive; negative | [4] inactive; negative | Test System: AMES SALMONELLA TYPHIMURIUM, Strain/Indicator: TA100, Metabolic Activation: HAMSTER, LIVER, S-9, AROCLOR 1254 (10 OR 30%) inactive; negative | [5] inactive; negative | Test System: AMES SALMONELLA TYPHIMURIUM, Strain/Indicator: TA100, Metabolic Activation: RAT LIVER S-9, PHENOBARBITAL AND BETA-NAPHTHOFLAVONE inactive; negative | Test System: AMES SALMONELLA TYPHIMURIUM, Strain/Indicator: TA100, Metabolic Activation: RAT, LIVER, S-9, AROCLOR 1254 (10 OR 30%) inactive; negative | [6] inactive; negative | [7] inactive; negative | Test System: AMES SALMONELLA TYPHIMURIUM, Strain/Indicator: TA1535, Metabolic Activation: RAT LIVER S-9, PHENOBARBITAL AND BETA-NAPHTHOFLAVONE inactive; negative | [8] inactive; negative | Test System: AMES SALMONELLA TYPHIMURIUM, Strain/Indicator: TA1537, Metabolic Activation: NONE inactive; negative | Test System: AMES SALMONELLA TYPHIMURIUM, Strain/Indicator: TA1537, Metabolic Activation: RAT LIVER S-9, PHENOBARBITAL AND BETA-NAPHTHOFLAVONE inactive; negative | Test System: E.COLI, Strain/Indicator: WP2UVRA/PKM101, Metabolic Activation: NONE inactive; negative | Test System: E.COLI, Strain/Indicator: WP2UVRA/PKM101, Metabolic Activation: RAT LIVER S-9, PHENOBARBITAL AND BETA-NAPHTHOFLAVONE inactive; negative

C[C@@]12CC[C@@H]3[C@@](CC[C@H]4[C@@]3(C)CCC[C@@]4(C)C(=O)O)(CC1=O)C2
inactive: Test System: AMES SALMONELLA TYPHIMURIUM, Strain/Indicator: TM677, Metabolic Activation: RAT, LIVER, S-9, AROCLOR 1254 inactive; negative
